In BindingDB's records for patent US11839613 (Idorsia Pharmaceuticals, 2023):
Each block holds one compound with its values, some of them ahead of it.

Experiments:
[1] = target: Prostaglandin E2 receptor EP4 subtype (Homo sapiens, UniProt P35408); experiment: hEP4 cAMP Assay
Method: Cells are counted washed and resuspended in assay buffer (AB; HBSS, 20 mM HEPES, 0.2% BSA; 2 mM IBMX). […] Plate is pre-incubated 45 minutes at RT. Subsequently, 2.5 microliters of PGE2 (final conc. 6 nM) are transferred into the assay plate. Plate is incubated 30 minutes at RT. […] For each compound concentration the percentage of cAMP compared to DMSO control value as average ±STDEV (each concentration is measured in duplicate) is calculated.

[2] = target: Prostaglandin E2 receptor EP2 subtype (Homo sapiens, UniProt P43116); experiment: hEP2 cAMP Assay
Method: Cells are counted washed and resuspended in assay buffer (AB; HBSS, 20 mM HEPES, 0.2% BSA; 2 mM IBMX). […] Plate is pre-incubated 45 minutes at RT. […] Plate is incubated 30 minutes at RT.

Sequence of Prostaglandin E2 receptor EP4 subtype (P35408 whole entry): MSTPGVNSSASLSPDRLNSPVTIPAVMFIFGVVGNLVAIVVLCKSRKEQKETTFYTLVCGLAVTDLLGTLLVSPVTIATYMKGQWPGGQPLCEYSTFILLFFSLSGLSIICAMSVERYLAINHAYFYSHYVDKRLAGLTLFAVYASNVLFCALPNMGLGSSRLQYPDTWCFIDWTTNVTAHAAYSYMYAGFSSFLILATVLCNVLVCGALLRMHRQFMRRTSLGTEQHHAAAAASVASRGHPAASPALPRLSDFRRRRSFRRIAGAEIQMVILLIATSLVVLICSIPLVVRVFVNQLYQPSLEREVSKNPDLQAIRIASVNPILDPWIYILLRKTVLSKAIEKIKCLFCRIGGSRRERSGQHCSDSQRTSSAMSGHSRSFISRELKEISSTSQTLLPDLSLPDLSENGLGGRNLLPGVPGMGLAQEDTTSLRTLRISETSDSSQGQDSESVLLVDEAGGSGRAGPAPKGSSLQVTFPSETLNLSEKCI
Sequence of Prostaglandin E2 receptor EP2 subtype (P43116 whole entry): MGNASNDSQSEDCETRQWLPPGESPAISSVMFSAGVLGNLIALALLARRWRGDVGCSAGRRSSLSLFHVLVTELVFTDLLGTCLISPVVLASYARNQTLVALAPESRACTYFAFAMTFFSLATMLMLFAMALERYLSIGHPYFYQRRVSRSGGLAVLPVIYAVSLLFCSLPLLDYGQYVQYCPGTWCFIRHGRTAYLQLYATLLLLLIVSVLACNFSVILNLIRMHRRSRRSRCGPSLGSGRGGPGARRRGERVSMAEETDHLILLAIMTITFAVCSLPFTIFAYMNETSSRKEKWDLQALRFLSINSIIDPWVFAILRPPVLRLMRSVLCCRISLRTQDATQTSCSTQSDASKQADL

Structure (SMILES): CCCc1cc(-c2cc(NCCc3c(OC)cc4ccccc4c3C)ncn2)ccc1C(=O)O [US11839613, Example 380]
IC50 [1]: 0.054 µM | IC50 [2]: 0.124 µM

Structure (SMILES): CC(C)Cc1cc(-c2cc(NCCc3cc(F)c4sccc4c3)ncn2)ccc1C(=O)O [US11839613, Example 414]
IC50 [1]: 0.088 µM | IC50 [2]: 0.505 µM

Structure (SMILES): COc1cc(-c2cc(NCCc3ccc4sccc4c3F)ncn2)ccc1CC(=O)O [US11839613, Example 382]
IC50 [1]: 0.222 µM | IC50 [2]: 0.675 µM

Structure (SMILES): CCCc1cc(-c2cc(NCCc3cc4c(cc3OC)OCCO4)ncn2)ccc1C(C)C(=O)O (racemic) [US11839613, Example 401]
IC50 [1]: 0.236 µM | IC50 [2]: 0.739 µM

Structure (SMILES): CCOc1cc(-c2cc(NCCc3cc(F)c4sccc4c3)ncn2)ccc1C(=O)O [US11839613, Example 361]
IC50 [1]: 0.068 µM | IC50 [2]: 0.27 µM

Structure (SMILES): CCOc1cc(-c2cc(NCCc3cc4ccccc4cc3NC)ncn2)ccc1OCC(=O)O [US11839613, Example 274]
IC50 [1]: 0.462 µM | IC50 [2]: 1.18 µM

Structure (SMILES): COc1cc2ccccc2c(C)c1CCNc1cc(-c2ccc(CC(=O)O)c(OC(F)F)c2)ncn1 [US11839613, Example 443]
IC50 [1]: 0.043 µM | IC50 [2]: 0.549 µM

Structure (SMILES): CCOc1cc(-c2cc(NCCc3ccc4ccsc4c3C)ncn2)sc1C(=O)O [US11839613, Example 376]
IC50 [1]: 0.011 µM | IC50 [2]: 0.188 µM

Structure (SMILES): C#Cc1cc2c(cc1CCNc1cc(-c3ccc(CC(=O)O)c(CCC)c3)ncn1)OCCO2 [US11839613, Example 440]
IC50 [1]: 0.065 µM | IC50 [2]: 0.025 µM

Structure (SMILES): CCCOc1cc(-c2cc(NCCc3ccc4sccc4c3F)ncn2)ccc1CC(=O)O [US11839613, Example 393]
IC50 [1]: 0.081 µM | IC50 [2]: 0.439 µM

Structure (SMILES): CCCc1cc(-c2cc(NCCc3cc4c(cc3OCC)OCCO4)ncn2)ccc1CC(=O)O [US11839613, Example 402]
IC50 [1]: 0.131 µM | IC50 [2]: 0.048 µM

Structure (SMILES): CCCc1cc(-c2cc(NCCc3c(OC)cc4c(c3F)OCCO4)ncn2)ccc1CC(=O)O [US11839613, Example 408]
IC50 [1]: 0.02 µM | IC50 [2]: 0.126 µM

Structure (SMILES): CC(C)Oc1cc(-c2cc(NCCc3ccc4sccc4c3F)ncn2)ccc1CC(=O)O [US11839613, Example 424]
IC50 [1]: 0.089 µM | IC50 [2]: 0.782 µM

Structure (SMILES): COc1cc2sccc2cc1CCNc1cc(-c2ccc(CC(=O)O)c(OC)c2)ncn1 [US11839613, Example 381]
IC50 [1]: 0.119 µM | IC50 [2]: 0.165 µM

Structure (SMILES): CSc1cc(-c2cc(NCCc3cc(F)c4sccc4c3)ncn2)ccc1C(=O)O [US11839613, Example 364]
IC50 [1]: 0.018 µM | IC50 [2]: 0.037 µM

Structure (SMILES): CCOc1cc(-c2cc(NCCc3cc4c(cc3OC(F)F)OCCO4)ncn2)sc1C(=O)O [US11839613, Example 433]
IC50 [1]: 0.013 µM | IC50 [2]: 0.057 µM

Structure (SMILES): CCOc1cc(-c2cc(NCCc3ccc4sccc4c3F)ncn2)ccc1C(=O)O [US11839613, Example 365]
IC50 [1]: 0.055 µM | IC50 [2]: 0.029 µM

Structure (SMILES): CCOc1cc(-c2cc(NCCc3c(OC)cc4c(c3F)OCCO4)ncn2)ccc1C(=O)O [US11839613, Example 435]
IC50 [1]: 0.08 µM | IC50 [2]: 0.028 µM

Structure (SMILES): COc1cc2ccccc2c(C)c1CCNc1cc(-c2ccc(C(=O)O)c(OC3CC3)c2)ncn1 [US11839613, Example 448]
IC50 [1]: 0.026 µM | IC50 [2]: 0.055 µM

Structure (SMILES): COc1c(CCNc2cc(-c3ccc(CC(=O)O)c(CC(C)C)c3)ncn2)cc2ccsc2c1F [US11839613, Example 410]
IC50 [1]: 0.17 µM | IC50 [2]: 0.665 µM

More lines, in order of falling IC50 [1], values ahead:

IC50 [1]: 0.245 µM | IC50 [2]: 0.087 µM
Structure (SMILES): CCCc1cc(-c2cc(NCCc3cc4c(cc3OC)OCCO4)ncn2)ccc1C(=O)O [US11839613, Example 379]

IC50 [1]: 0.087 µM | IC50 [2]: 0.486 µM
Structure (SMILES): CC(C)Cc1cc(-c2cc(NCCc3ccc4sccc4c3F)ncn2)ccc1CC(=O)O [US11839613, Example 409]

IC50 [1]: 0.081 µM | IC50 [2]: 0.312 µM
Structure (SMILES): CCOc1cc(-c2cc(NCCc3ccc4sccc4c3)ncn2)cc(F)c1CC(=O)O [US11839613, Example 370]

IC50 [1]: 0.08 µM | IC50 [2]: 0.022 µM
Structure (SMILES): CCc1cc(-c2cc(NCCc3c(OC)cc4c(c3C)OCCO4)ncn2)ccc1CC(=O)O [US11839613, Example 444]

IC50 [1]: 0.066 µM | IC50 [2]: 0.11 µM
Structure (SMILES): CCCc1cc(-c2cc(NCCc3ccc4sccc4c3F)ncn2)ccc1C(=O)O [US11839613, Example 378]

IC50 [1]: 0.059 µM | IC50 [2]: 0.577 µM
Structure (SMILES): COc1cc(-c2cc(NCCc3c(OC)cc4ccccc4c3C)ncn2)ccc1CC(=O)O [US11839613, Example 384]

IC50 [1]: 0.057 µM | IC50 [2]: 0.106 µM
Structure (SMILES): COc1c(CCNc2cc(-c3ccc(C(=O)O)c(CC(C)C)c3)ncn2)cc2ccsc2c1F [US11839613, Example 415]

IC50 [1]: 0.051 µM | IC50 [2]: 0.626 µM
Structure (SMILES): CCCc1cc(-c2cc(NCCc3c(OC)cc4ccccc4c3C)ncn2)ccc1CC(=O)O [US11839613, Example 388]

IC50 [1]: 0.045 µM | IC50 [2]: 0.304 µM
Structure (SMILES): CCOc1cc(-c2cc(NCCc3c(OC)cc4ccccc4c3C)ncn2)cc(F)c1CC(=O)O [US11839613, Example 374]

IC50 [1]: 0.037 µM | IC50 [2]: 0.227 µM
Structure (SMILES): COc1cc(-c2cc(NCCc3ccc4sccc4c3F)ncn2)ccc1OCCC(=O)O [US11839613, Example 437]

IC50 [1]: 0.035 µM | IC50 [2]: 0.534 µM
Structure (SMILES): CCOc1cc(-c2cc(NCCc3cc(F)c4sccc4c3)ncn2)ccc1CC(=O)O [US11839613, Example 363]

IC50 [1]: 0.031 µM | IC50 [2]: 0.021 µM
Structure (SMILES): COc1cc2c(c(C)c1CCNc1cc(-c3ccc(CC(=O)O)c(OC(F)F)c3)ncn1)OCCO2 [US11839613, Example 441]

IC50 [1]: 0.027 µM | IC50 [2]: 0.247 µM
Structure (SMILES): CCOc1cc(-c2cc(NCCc3ccc4sccc4c3F)ncn2)ccc1OCCC(=O)O [US11839613, Example 421]

IC50 [1]: 0.02 µM | IC50 [2]: 0.001 µM
Structure (SMILES): COc1cc2c(c(C)c1CCNc1cc(-c3ccc(C(=O)O)c(OC4CCC4)c3)ncn1)OCCO2 [US11839613, Example 396]

IC50 [1]: 0.018 µM | IC50 [2]: 0.492 µM
Structure (SMILES): CCOc1cc(-c2cc(NCCc3cc(F)c4sccc4c3)ncn2)ccc1OCCC(=O)O [US11839613, Example 422]
